In US5663417A, “Carbocyclic sulfonamides” (Ono Pharmaceutical Co., Ltd., priority 1993, dated 1997):

System: contraction of rat uterus induced by PGE2
Assay: inhibitory effects of compounds on contraction of rat uterus induced by PGE2
Set-up: species or system rat (Sprague Dawley)
Settings: contraction induced by 0.3 μM PGE2; isolated pseudo pregnant rat uterus strips, 28° C.; compound concentration not given
Protocol: (ii) The inhibitory effects of compounds on contraction of rat uterus induced by PGE2
Pseudo pregnant rat uterus (Sprague Dawley, 200-300 g, induced by oestradiol […] s.c. 18-24 hours before experiment) was isolated and longitudinal strips of 1-1.5 cm were set up in Locke-Ringer solution containing low Ca^2+, aerated with mixed gas (oxygen 95%+carbon dioxide 5%) at 28° C.

Compound | inhibition of the contraction of rat uterus induced by PGE2
CC1(C)[C@H]2C[C@H](NS(=O)(=O)/C=C/c3ccccc3)[C@@H](C/C=C\CCCC(=O)O)[C@@H]1C2 [6 (12), 7-[(1S, 2S, 3S, 5R)-3-(2-phenylvinylsulfonylamino)-6,6-dimethylbicyclo[3.1.1]heptan-2-yl]-5Z-heptenoic acid] | completely inhibited

System: not listed separately
Assay: acute toxicity (LD50) in mouse by oral administration
Settings: in vivo
Protocol: For example, the acute toxicity (LD50) in mouse of 6-[(1S, 2R, 3R, 4R)-3-(4-bromophenylsulfonylaminomethyl)bicyclo[2.2.1]heptan-2-yl]-5Z-hexenoic acid (it is described as example 1(y) in specification of the U.S. Pat. No. 5,168,101.) was more than 300 mg/kg by oral administration.

Compound | LD50 [mg/kg]
O=C(O)CCC/C=C\[C@@H]1[C@H]2CC[C@H](C2)[C@H]1CNS(=O)(=O)c1ccc(Br)cc1 [U.S. Pat. No. 5168101 1 (y), 6-[(1S, 2R, 3R, 4R)-3-(4-bromophenylsulfonylaminomethyl)bicyclo[2.2.1]heptan-2-yl]-5Z-hexenoic acid] | > 300

Molecular target: prostaglandin E2 receptor
Assay: inhibition of [^3 H]-PGE2 receptor binding in rat uterus membrane fraction
Settings: Table I; 5 nM [^3 H]-PGE2, rat uterus crude membrane fraction, pH 6.0, 1 hour at room temperature; read-out: IC50, inhibitory effects of PGE2 receptor binding in rat
Protocol: (i) The measurement of the inhibition of [^3 H]-PGE2 receptor binding
The standard assay mixture contained 5 nM [^3 H]-PGE2 (50 μl), test compounds (50 μl) and crude membrane fraction obtained from rat uterus (1.2 mg protein/ml, 100 μl) in a final volume of 200 μl (10 mM potassium phosphate pH 6.0, 0.1M NaCl (buffer A)). After incubation for 1 hour at room temperature, the reaction was stopped by the addition of 3 ml of ice-cold buffer A, after which the mixture was rapidly filtered through a Whatman GF/B glass filter. The radioactivity associated with the filter was measured in ACS II (Amarsham) by liquid scintillation counting. Percent inhibition of specific [^3 H]-PGE2 binding or IC50 value, the concentration required to compete with ^3 H-PGE2 receptor binding by 50% were calculated.

Compound | IC50 [nM]
O=C(O)CCC/C=C\C1CC2CC(NS(=O)(=O)c3ccc(Br)cc3)C1C2 (stereo not drawn) [U.S. Pat. No. 5168101 1 (b)] | 3500
O=C(O)CCC/C=C\[C@@H]1CC[C@H](NS(=O)(=O)c2ccc(Br)cc2)C1 [U.S. Pat. No. 5168101 1 (i)] | 2400
Cc1ccc(S(=O)(=O)NCC2C3CCC(C3)C2/C=C\CCCC(=O)O)cc1 (stereo not drawn) [U.S. Pat. No. 5168101 1 (p)] | 6400
O=C(O)CCC/C=C\[C@@H]1[C@H]2CC[C@H](C2)[C@H]1CNS(=O)(=O)c1ccc(Br)cc1 [U.S. Pat. No. 5168101 1 (y), 6-[(1S, 2R, 3R, 4R)-3-(4-bromophenylsulfonylaminomethyl)bicyclo[2.2.1]heptan-2-yl]-5Z-hexenoic acid] | 620

Second part, the compound after the results:

IC50 [nM] | Compound
770 | O=C(O)CCC/C=C\C1CC2CCC1C(NS(=O)(=O)c1ccc(Br)cc1)C2 (stereo not drawn) [U.S. Pat. No. 5168101 1 (a)]
2000 | Cc1ccc(S(=O)(=O)NCC2C3C=CC(C3)C2C=CCCCC(=O)O)cc1 (stereo not drawn) [U.S. Pat. No. 5168101 1 (aa)]
820 | O=C(O)CCCC=CC1C2C=CC(C2)C1CNS(=O)(=O)c1ccc(Br)cc1 (stereo not drawn) [U.S. Pat. No. 5168101 1 (bb)]
500 | O=C(O)CCC/C=C\C1CC2CC(NS(=O)(=O)c3ccc(Br)cc3)C1C2 (stereo not drawn) [U.S. Pat. No. 5168101 1 (c)]
390 | O=C(O)CCCC=CC1C2CCC(C2)C1CNS(=O)(=O)c1ccc(Br)cc1 (stereo not drawn) [U.S. Pat. No. 5168101 1 (cc)]
1200 | O=C(O)CCC/C=C\C1CCCCC1CNS(=O)(=O)c1ccc(Br)cc1 (stereo not drawn) [U.S. Pat. No. 5168101 1 (t)]
1600 | Cc1ccc(S(=O)(=O)NCC2C3CCC(C3)C2C=CCCCC(=O)O)cc1 (stereo not drawn) [U.S. Pat. No. 5168101 1 (x)]

Same assay, conditions: Table II; 5 nM [^3 H]-PGE2, rat uterus crude membrane fraction, pH 6.0, 1 hour at room temperature; read-out: IC50, inhibitory effects of PGE2 receptor binding in rat

IC50 [nM] | Compound
< 10 | CC1(C)[C@H]2C[C@H](NS(=O)(=O)/C=C/c3ccccc3)[C@@H](C/C=C\CCCC(=O)O)[C@@H]1C2 [6 (12), 7-[(1S, 2S, 3S, 5R)-3-(2-phenylvinylsulfonylamino)-6,6-dimethylbicyclo[3.1.1]heptan-2-yl]-5Z-heptenoic acid]
260 | CC1(C)[C@H]2C[C@H](NS(=O)(=O)C=C(c3ccccc3)c3ccccc3)[C@@H](C/C=C\CCCC(=O)O)[C@@H]1C2 [Example 9, 7-[(1S,2S,3S,5R)-3-(2,2-diphenylvinylsulfonylamino)-6,6-dimethylbicyclo[3.1.1]heptan-2-yl]-5Z-heptenoic acid]
